Values after ≈ are worked out from the molar mass of the structure shown. “Also recorded” adds a separate entry of the source. Where two headings read alike, the source gives them in different places.
Key:
[1] = Hepatic microsome stability, mouse; format: in vitro ADME; conditions: mouse liver microsomes
Procedure: (§1) Hepatic microsomal stability assays were performed in two stages. In the first set of experiments, aliquots of the DMSO solute stocks were diluted into ACN and then into assay buffer (PBS, pH 7.4, ±0.05% PS80). Final experimental solute concentrations were 1 μM (0.6% ACN, 0.01% DMSO). Commercially available mouse, rat, or human hepatic microsomes (˜0.5 mg/ml final concentration), and NADPH (1 mM) or PBS were added. The resulting mixture was incubated at 37° C., and aliquots removed at 0, 1, 10, 30 and 60 min, then quenched with ACN containing 2 μM carbamazepine (internal standard). […] Duplicate incubations were run for each time-point. The percentage of solute remaining at the end of the incubation was used to determine solute half-life.
(§2) These were diluted 500-fold into 1 mL of microsomal incubation mixture to yield a final concentration of 1 μM. The incubation mixture was composed of 100 mM phosphate buffer, pH 7.4, and NADPH regenerating system (BD Biosciences NADPH Regenerating System Solutions A & B). This mixture was preincubated at 37° C. for 5 min in an Eppendorf Thermo mixer, and the reaction initiated by addition of 0.5 mg (25 μl of a 20 mg/mL solution) of liver microsomes. Aliquots (100 μl) were withdrawn at 0, 5, 15, 30, and 60 min, and added to 100 μl ACN containing internal standard. […] The percentage of solute remaining at the end of the incubation was used to determine species-specific values of scaled intrinsic clearance, hepatic clearance, and predicted hepatic extraction based upon the calculations below {Obach, 1999 #9097}.
(§3) for which mg microsomal protein/gm liver was 45 for all species, and gm liver/kg body weight were 32 for dog, 88 for mouse, 40 for rat and 25 for human.
(§4) Clh=(Q*Clint,scaled)/(Q+Clint,scaled)
(§5) for which Q was hepatic blood flow; values of 90 ml/min/kg for mouse, 66 ml/min/kg for rat, and 21 ml/min/kg for human were used.
(§6) for which ER estimates the amount of compound cleared during a single pass through the liver (Low ER<0.3, moderate ER 0.3-0.7, high ER>0.7).

[2] = Hepatic microsome stability, human; format: in vitro ADME
Procedure: as §1, §2, §3, §4, §5, §6

[3] = Hepatic microsomal stability, dog; format: in vitro ADME; conditions: beagle, liver microsomes, pH 7.4
Procedure: as §2, with “to […] ACN containing” for “to 100 μl ACN containing”, “calculations below (Obach, 1999).” for “calculations below {Obach, 1999 #9097}.”
as §3
for which ER estimates the amount of compound cleared during a single pass through the liver (Low ER <0.3, moderate ER 0.3-0.7, high ER>0.7).

[4] = system: PrP^Sc in dividing ScN2a-c13 cells; conditions: read-out: EC50 (ELISA), reduction of PrP^Sc load; dividing ScN2a-c13 cells
[5] = […]
[6] = Hepatic microsomal stability, rat; conditions: for half-life at 1 μM: Sprague-Dawley, pH 7.4
[7] = Hepatic microsomal stability, mouse; conditions: for half-life at 1 μM: CD-1, mouse, pH 7.4
[8] = Hepatic microsomal stability, human; conditions: for half-life at 1 μM: pH 7.4
[9] = Single-dose pharmacokinetics in FVB mice (oral gavage, IV); conditions: for Kp / Cmax / Tmax / AUC(0-t) / half-life / bioavailability: female, FVB, mouse
[10] = Multidose (three-day) pharmacokinetics in liquid diet in FVB mice; conditions: for concentration at 3 days: FVB, mouse, in vivo
in vitro = conditions: dog, MDCK-MDR1
P-gp (MDR1) = test: in vitro; conditions: dog, MDCK-MDR1
[11] = 40 mg/kg, Brain Concentration (Css), three-day dosing in liquid diet, brain
[12] = 40 mg/kg, Plasma Concentration (Css), three-day dosing in liquid diet, plasma
[13] = 80 mg/kg, Brain Concentration (Css), three-day dosing in liquid diet, brain
[14] = 80 mg/kg, Plasma Concentration (Css), three-day dosing in liquid diet, plasma
[15] = 130 mg/kg, Brain Concentration (Css), three-day dosing in liquid diet, brain
[16] = 130 mg/kg, Plasma Concentration (Css), three-day dosing in liquid diet, plasma
[17] = 210 mg/kg, Brain Concentration (Css), three-day dosing in liquid diet, brain
[18] = 210 mg/kg, Plasma Concentration (Css), three-day dosing in liquid diet, plasma
[19] = cell culture media, plasma or biological fluid
[20] = pH 2 (HCl) buffer, pH 2, simulated gastric fluid
[21] = pH 7.4 (phosphate) buffer, pH 7.4, aqueous buffer

For `Cc1cccc(Nc2nc(-c3ccc(-c4ccccc4)cc3)cs2)n1` [IND24, (4-Biphenyl-4-yl-thiazol-2-yl)-(6-methyl-pyridin-2-yl)-amine], the “metabolic stability (in words)” value [1] was “stable; also recorded: excellent stability”, the half-life at 1 μM ([1]; pH 7.4, 1 μM) was > 1 h and the “metabolic stability (in words)” value ([2]; human liver microsomes) was “stable; also recorded: excellent stability”. For the same compound, the half-life at 1 μM ([2]; pH 7.4, human liver microsomes, 1 μM) was > 1 h, the “metabolism in HLM incubations” value ([2]; pooled human liver microsomes, 1 μM, 60 min, with or without CYP inhibitors) was “very little metabolism” and the half-life at 1 μM ([3]; female dog microsomes, read-out: t1/2 Dog Female) was 0.85 h. The half-life at 1 μM ([3]; male dog microsomes, * extrapolated, read-out: t1/2 Dog Male (extrapolated)) was 2.33 h, the EC50 [4] was 1.27 µM and the “metabolic stability (in words)” value [5] was “stable”. The half-life at 1 μM ([6]; rat) was > 1 h, the “% remaining after a 60-min incubation, Rat” value (from here on “% remaining … Rat”) [6] was 90% and the half-life at 1 μM ([7]; liver microsomes) was > 1 h. For the same compound, the half-life at 1 μM ([7]; mouse liver microsomes) was > 1 h, the half-life at 1 μM ([7]; female, liver microsomes) was 4.83 h and the half-life at 1 μM ([7]; male, liver microsomes) was 3.17 h. For the same compound, the “% remaining after a 60-min incubation, Mouse” value (“% remaining … Mouse” below) ([7]; mouse liver microsomes) was 89%, the half-life at 1 μM ([8]; both, human, liver microsomes) was 23.3 h and the “% remaining after a 60-min incubation, Human” value (“% remaining … Human” for short) ([8]; human liver microsomes) was 105%. For the same compound, the half-life at 1 μM ([8]; human, human liver microsomes) was > 1 h, the half-life at 1 μM ([8]; human, liver microsomes) was > 1 h and the AUClast ([9]; PO 40 mg/kg, brain, female FVB mice) was 9998 ± 417 ng·h/g. It also gave a Kp ([9]; brain and plasma, po, 10 mg/kg) of 2.6, a Cmax ([9]; brain, po, 40 mg/kg) of 840 ± 252 ng/g and a Tmax ([9]; brain, po, 40 mg/kg) of 4 h. It also gave a Kp ([9]; brain/plasma, po, 40 mg/kg) of 2.61, an AUC(0-t) ([9]; plasma, iv, 1 mg/kg) of 953 ± 374 ng·h/mL and a Cmax ([9]; plasma, iv, 1 mg/kg) of 856 ± 908 ng/mL. It also gave a Tmax ([9]; plasma, iv, 1 mg/kg) of 0.083 h, a half-life ([9]; plasma, iv, 1 mg/kg, Half-life, 1 mg/kg IV, female FVB mice) of 2 h and a half-life ([9]; plasma, iv, 1 mg/kg, t1/2, IV 1 mg/kg, female FVB mice) of 2.15 h. The bioavailability ([9]; plasma, po, 10 mg/kg) was 40%, the AUC(0-t) ([9]; plasma, po, 40 mg/kg) was 3830 ± 450 ng·h/mL and the Cmax ([9]; plasma, po, 40 mg/kg) was 569 ± 38.1 ng/mL. For the same compound, the Tmax ([9]; plasma, po, 40 mg/kg) was 2 h, the bioavailability ([9]; plasma, po, 40 mg/kg) was 40.2% and the half-life ([9]; plasma, po, 40 mg/kg, t1/2, PO 40 mg/kg, female FVB mice) was 4.65 h. For the same compound, the “Brain exposure (AUClast) ranking” value ([9]; single oral dose, FVB mice, brain) was “highest AUC values in brain”, the concentration at 3 days [10, 11] was 8.7 ± 1.46 µM and the concentration at 3 days [10, 12] was 8.19 ± 8.09 µM. For the same compound, the concentration at 3 days [10, 13] was 19.3 ± 2.28 µM, the concentration at 3 days [10, 14] was 5.55 ± 1.18 µM and the concentration at 3 days [10, 15] was 31.8 ± 5.46 µM. It also gave a concentration at 3 days [10, 16] of 11.7 ± 4.85 µM, a concentration at 3 days [10, 17] of 37.4 ± 9.06 µM and a concentration at 3 days [10, 18] of 18.9 ± 20.5 µM. For the same compound, the Brain concentrations ([10]; female FVB mice, 75 mg/kg, formulations containing 0.125-1.25% (v/v) PEG400) was > 8 µM.

With `Cc1ccc(Nc2nc(-c3cc(-c4ccccc4)no3)cs2)nc1` [IND33, (5-Methyl-pyridin-2-yl)-[4-(3-phenyl-isoxazol-5-yl)-thiazol-2-yl]-amine] the “hepatic extraction ratio (ER)” value [1] was “lower to moderate”, the “hepatic extraction ratio (ER)” value ([2]; human liver microsomes) was “lower to moderate” and the “hepatic extraction ratio (ER)” value [5] was “lower to moderate”. For the same compound, the “solubility in FaSSIF (in words)” value (fasted-state simulated intestinal fluid) was “higher solubility”, the “solubility at pH 2.0 (in words)” value (pH 2 (HCl) buffer) was “lower” and the solubility (physchem; FaSSIF) was 70 µM (≈ 23.4 µg/mL). The solubility (physchem; [19]) was 225 µM (≈ 75.2 µg/mL), the solubility (physchem; [20]) was 1 µM (≈ 0.334 µg/mL) and the solubility (physchem; [21]) was < 1 µM. For the same compound, the Papp A→B (in vitro) was 6.8 ×10⁻⁶ cm/s, the Papp B→A (in vitro) was 8.3 ×10⁻⁶ cm/s and the efflux ratio (P-gp (MDR1)) was 1.2. For the same compound, the half-life at 1 μM ([6]; rat) was > 1 h, the “% remaining … Rat” value [6] was 73% and the “Hepatic Extraction Ratio Rat” value ([6]; rat microsomes) was 0.3. For the same compound, the “t1/2 Rat (extrapolated)” value ([6]; rat microsomes, * extrapolated) was 151* min, the half-life at 1 μM ([7]; liver microsomes) was 1.65 h and the half-life at 1 μM ([7]; mouse liver microsomes) was > 1 h. For the same compound, the “% remaining … Mouse” value ([7]; mouse liver microsomes) was 111%, the “Hepatic Extraction Ratio Mouse” value ([7]; mouse microsomes) was 0.5 and the “Hepatic Extraction Ratio Human” value ([8]; human) was 0.7. The “% remaining … Human” value ([8]; human liver microsomes) was 42%, the “Hepatic Extraction Ratio Human” value ([8]; human microsomes) was 0.7 and the half-life at 1 μM ([8]; human, human liver microsomes) was 0.9 h. It also gave a half-life at 1 μM ([8]; human, liver microsomes) of 0.9 h, a concentration at 3 days [10, 11] of 0.88 ± 0.68 µM and a concentration at 3 days [10, 12] of 0.65 ± 0.38 µM. The concentration at 3 days [10, 13] was 5.39 ± 2.93 µM, the concentration at 3 days [10, 14] was 2.85 ± 1.3 µM and the concentration at 3 days [10, 15] was 30 µM. For the same compound, the concentration at 3 days [10, 16] was 4.74 ± 1.31 µM, the concentration at 3 days [10, 17] was 12.6 ± 8.62 µM and the concentration at 3 days [10, 18] was 14.2 ± 2.09 µM. For the same compound, the “Brain Concentration (Css), 130 mg/kg” value ([10]; three-day dosing in liquid diet, 130 mg/kg, brain) was 23.3 ± 13.2 µM.

In the case of `Cc1ccnc(Nc2nc(-c3ccncc3)cs2)c1` [IND52, (4-Methyl-pyridin-2-yl)-(4-pyridin-4-yl-thiazol-2-yl)-amine], the “hepatic extraction ratio (ER)” value [1] is reported as “higher”, the “hepatic extraction ratio (ER)” value ([2]; human liver microsomes) is reported as “higher” and the EC50 [4] is reported as 4.95 µM. For the same compound, the “hepatic extraction ratio (ER)” value [5] was “higher”, the solubility (physchem; FaSSIF) was 2 µM (≈ 0.537 µg/mL) and the solubility (physchem; [19]) was 76 µM (≈ 20.4 µg/mL). It also gave a solubility (physchem; [20]) of 215 µM (≈ 57.7 µg/mL), a solubility (physchem; [21]) of 1 µM (≈ 0.268 µg/mL) and a Papp A→B (in vitro) of 36.2 ×10⁻⁶ cm/s. It also gave a Papp B→A (in vitro) of 48.7 ×10⁻⁶ cm/s, an efflux ratio (P-gp (MDR1)) of 1.3 and a half-life at 1 μM ([6]; rat) of 0.267 h. The “% remaining … Rat” value [6] was 8%, the “Hepatic Extraction Ratio Rat” value ([6]; rat) was 0.8 and the “Hepatic Extraction Ratio Rat” value ([6]; rat microsomes) was 0.8. The half-life at 1 μM ([7]; liver microsomes) was 0.1 h, the half-life at 1 μM ([7]; mouse liver microsomes) was 0.1 h and the “Hepatic Extraction Ratio Mouse” value ([7]; mouse) was 0.95. The “% remaining … Mouse” value ([7]; mouse liver microsomes) was 0%, the “Hepatic Extraction Ratio Mouse” value ([7]; mouse microsomes) was 0.95 and the “Hepatic Extraction Ratio Human” value ([8]; human) was 0.8. For the same compound, the “% remaining … Human” value ([8]; human liver microsomes) was 30%, the “Hepatic Extraction Ratio Human” value ([8]; human microsomes) was 0.8 and the half-life at 1 μM ([8]; human, human liver microsomes) was 0.6 h. For the same compound, the half-life at 1 μM ([8]; human, liver microsomes) was 0.6 h, the concentration at 3 days [10, 12] was 0.01 ± 0.01 µM and the concentration at 3 days [10, 13] was 0.76 ± 1.09 µM. It also gave a concentration at 3 days [10, 14] of 0.67 ± 1 µM, a concentration at 3 days [10, 15] of 2.34 ± 2.13 µM and a concentration at 3 days [10, 16] of 1.93 ± 1.58 µM. The concentration at 3 days [10, 17] was 7.65 ± 5.57 µM, the concentration at 3 days [10, 18] was 10.9 ± 8.44 µM and the “Brain Concentration (Css), 40 mg/kg” value ([10]; three-day dosing in liquid diet, 40 mg/kg, brain) was “no measurable brain concentrations”.

— patent US20140329863A1 (priority 2011, published 2014)
